Assay results taken from PubChem BioAssay AID248 (DTP/NCI, 2004).
Values joined by “and” are separate entries in the source; they are usually repeats but may differ in a detail not shown here. Identical values can stand only once. Inconclusive results and toxic doses are left out.

Test system: L1210 leukemia ip in BDF1 mice, survival T/C
Assay: NCI In Vivo Anticancer Drug Screen. Data for tumor model L1210 Leukemia (intraperitoneal) in B6D2F1 (BDF1) mice
Conditions: endpoint: mean survival time, higher = longer survival
Summary of the method: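 Transplantable tumor model; survival measured in treated vs vehicle control mice. Value = treated/control.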

[1] = dose: 50.0 mg/kg/injection, schedule: Q01DX001 (ip), vehicle: saline
[2] = dose: 100.0 mg/kg/injection, schedule: Q01DX001 (ip), vehicle: saline
[3] = dose: 200.0 mg/kg/injection, schedule: Q01DX001 (ip), vehicle: saline
[4] = dose: 400.0 mg/kg/injection, schedule: Q01DX001 (ip), vehicle: saline
[5] = dose: 100.0 mg/kg/injection, schedule: Q04DX003 (ip), vehicle: Klucel (hydroxypropylcellulose) (HPC)
[6] = dose: 200.0 mg/kg/injection, schedule: Q04DX003 (ip), vehicle: Klucel (hydroxypropylcellulose) (HPC)
[7] = dose: 400.0 mg/kg/injection, schedule: Q04DX003 (ip), vehicle: Klucel (hydroxypropylcellulose) (HPC)
[8] = dose: 100.0 mg/kg/injection, schedule: Q01DX009 (ip), vehicle: Klucel (hydroxypropylcellulose) (HPC)
[9] = dose: 200.0 mg/kg/injection, schedule: Q01DX009 (ip), vehicle: Klucel (hydroxypropylcellulose) (HPC)
[10] = dose: 400.0 mg/kg/injection, schedule: Q01DX009 (ip), vehicle: Klucel (hydroxypropylcellulose) (HPC)

With CSc1cc(C)n2nnnc2n1 the T/C (dose: 12.5 mg/kg/injection, schedule: Q01DX001 (ip), vehicle: saline) was 100 % of control, the T/C (dose: 25.0 mg/kg/injection, schedule: Q01DX001 (ip), vehicle: saline) was 96 % of control and the T/C [1] was 100 % of control.

With CNC(=S)N/N=C/C(C)=N/NC(=S)NC the T/C (dose: 4.0 mg/kg/injection, schedule: Q01DX Z (ip), vehicle: carboxymethylcellulose (CMC)) was 102 % of control, the T/C (dose: 8.0 mg/kg/injection, schedule: Q01DX Z (ip), vehicle: carboxymethylcellulose (CMC)) was 97 % of control and the T/C (dose: 10.0 mg/kg/injection, schedule: Q04DX003 (ip), vehicle: saline) was 98 % of control. The T/C (dose: 16.0 mg/kg/injection, schedule: Q01DX Z (ip), vehicle: carboxymethylcellulose (CMC)) was 95 % of control and 103 % of control, the T/C (dose: 20.0 mg/kg/injection, schedule: Q04DX003 (ip), vehicle: saline) was 100 % of control and the T/C (dose: 31.0 mg/kg/injection, schedule: Q01DX Z (ip), vehicle: carboxymethylcellulose (CMC)) was 95 % of control. The T/C (dose: 40.0 mg/kg/injection, schedule: Q04DX003 (ip), vehicle: saline) was 96 % of control, the T/C [1] was 86 % of control and the T/C (dose: 62.0 mg/kg/injection, schedule: Q01DX Z (ip), vehicle: carboxymethylcellulose (CMC)) was 93 % of control and 100 % of control. The T/C (dose: 80.0 mg/kg/injection, schedule: Q04DX003 (ip), vehicle: saline) was 93 % of control, the T/C [2] was 95 % of control and the T/C (dose: 125.0 mg/kg/injection, schedule: Q01DX Z (ip), vehicle: carboxymethylcellulose (CMC)) was 90 % of control and 91 % of control. For the same compound, the T/C [3] was 89 % of control, the T/C (dose: 250.0 mg/kg/injection, schedule: Q01DX Z (ip), vehicle: carboxymethylcellulose (CMC)) was 93 % of control and the T/C [4] was 95 % of control. For the same compound, the T/C (dose: 500.0 mg/kg/injection, schedule: Q01DX Z (ip), vehicle: carboxymethylcellulose (CMC)) was 90 % of control, the T/C (dose: 1000.0 mg/kg/injection, schedule: Q01DX Z (ip), vehicle: carboxymethylcellulose (CMC)) was 90 % of control and the T/C (dose: 125.0 micrograms/kg/injection, schedule: Q01DX009 (ip), vehicle: saline) was 101 % of control. For the same compound, the T/C (dose: 250.0 micrograms/kg/injection, schedule: Q01DX009 (ip), vehicle: saline) was 98 % of control, the T/C (dose: 500.0 micrograms/kg/injection, schedule: Q01DX009 (ip), vehicle: saline) was 98 % of control and the T/C (dose: 1000.0 micrograms/kg/injection, schedule: Q01DX009 (ip), vehicle: saline) was 107 % of control.

CCOC(Nc1ccc(Cl)cc1Cl)C(=O)c1ccccc1 (centres undefined) was tested, and the T/C [2] was 97 % of control, the T/C [3] was 101 % of control and the T/C [4] was 101 % of control.

With O=S(=O)(/C(=C\c1ccccc1)c1ccccc1)c1ccccc1 the T/C [2] was 90 % of control, the T/C [3] was 93 % of control and the T/C [4] was 93 % of control.

Cc1cccc(C)c1CNC(=O)NCCCl was tested, and the T/C [5] was 98 % of control, the T/C [6] was 95 % of control and the T/C [7] was 104 % of control.

In the case of CC(C)c1ccc(C2(C)CCCCC2=O)cc1 (centres undefined), the T/C (dose: 100.0 mg/kg/injection, schedule: Q01DX001 (ip), vehicle: other) is reported as 101 % of control, the T/C (dose: 200.0 mg/kg/injection, schedule: Q01DX001 (ip), vehicle: other) is reported as 103 % of control and the T/C (dose: 400.0 mg/kg/injection, schedule: Q01DX001 (ip), vehicle: other) is reported as 93 % of control.

With O=c1[nH]c2ccncc2c(=O)n1O the T/C [8] was 94 % of control, the T/C [9] was 104 % of control and the T/C [10] was 94 % of control.

In the case of c1ccc(C2(NC3=NCCO3)CCCCC2)cc1, the T/C (dose: 10.0 mg/kg/injection, schedule: Q01DX009 (ip), vehicle: Klucel (hydroxypropylcellulose) (HPC)) is reported as 101 % of control, the T/C (dose: 20.0 mg/kg/injection, schedule: Q01DX009 (ip), vehicle: Klucel (hydroxypropylcellulose) (HPC)) is reported as 97 % of control and the T/C (dose: 40.0 mg/kg/injection, schedule: Q01DX009 (ip), vehicle: Klucel (hydroxypropylcellulose) (HPC)) is reported as 101 % of control. The T/C (dose: 75.0 mg/kg/injection, schedule: Q01DX009 (ip), vehicle: Klucel (hydroxypropylcellulose) (HPC)) was 107 % of control.

O=C(N/N=C/c1ccc2c(c1)CCC2)c1ccccc1 was tested, and the T/C (dose: 100.0 mg/kg/injection, schedule: Q04DX003 (ip), vehicle: saline with Tween-80) was 92 % of control, the T/C (dose: 200.0 mg/kg/injection, schedule: Q04DX003 (ip), vehicle: saline with Tween-80) was 90 % of control and the T/C (dose: 400.0 mg/kg/injection, schedule: Q04DX003 (ip), vehicle: saline with Tween-80) was 88 % of control.

With O=C(Nc1cccc(C(F)(F)F)c1)N(CCO)Cc1ccccc1 the T/C (dose: 100.0 mg/kg/injection, schedule: Q01DX001 (ip), vehicle: Klucel (hydroxypropylcellulose) (HPC)) was 104 % of control, the T/C [8] was 100 % of control and 109 % of control and the T/C [5] was 103 % of control. The T/C (dose: 200.0 mg/kg/injection, schedule: Q01DX001 (ip), vehicle: Klucel (hydroxypropylcellulose) (HPC)) was 105 % of control, the T/C [9] was 100 % of control and 114 % of control and the T/C [6] was 99 % of control. For the same compound, the T/C (dose: 400.0 mg/kg/injection, schedule: Q01DX001 (ip), vehicle: Klucel (hydroxypropylcellulose) (HPC)) was 102 % of control, the T/C [10] was 93 % of control and 107 % of control and the T/C [7] was 95 % of control.

CSCCC1NC(=O)C(/C(C)=N\NC(N)=O)=C1O (centres undefined) was tested, and the T/C (dose: 50.0 mg/kg/injection, schedule: Q01DX001 (ip), vehicle: carboxymethylcellulose (CMC)) was 101 % of control, the T/C (dose: 100.0 mg/kg/injection, schedule: Q01DX001 (ip), vehicle: carboxymethylcellulose (CMC)) was 103 % of control and the T/C (dose: 200.0 mg/kg/injection, schedule: Q01DX001 (ip), vehicle: carboxymethylcellulose (CMC)) was 103 % of control. For the same compound, the T/C (dose: 400.0 mg/kg/injection, schedule: Q01DX001 (ip), vehicle: carboxymethylcellulose (CMC)) was 101 % of control.

O=c1[nH]c2cc(Cl)cc([N+](=O)[O-])c2c2c(Cl)cc(Cl)cc12 was tested, and the T/C [8] was 100 % of control, the T/C [5] was 95 % of control and the T/C [9] was 101 % of control. For the same compound, the T/C [6] was 97 % of control, the T/C [10] was 104 % of control and the T/C [7] was 92 % of control.

CCOC(=O)CC(C)(C)NCc1ccccc1 was tested, and the T/C [5] was 96 % of control.

In the case of O=[N+]([O-])c1ccc(Cl)cc1/C=N/N1CCN(/N=C/c2cc(Cl)ccc2[N+](=O)[O-])CC1, the T/C [2] is reported as 93 % of control, the T/C [3] is reported as 93 % of control and the T/C [4] is reported as 93 % of control.

In the case of CCCCCCCC(O)CCC (centres undefined), the T/C [8] is reported as 94 % of control, the T/C [5] is reported as 100 % of control and the T/C [9] is reported as 104 % of control. For the same compound, the T/C [6] was 97 % of control and the T/C [7] was 92 % of control.

In the case of COC(=O)CCNCc1ccccc1, the T/C [8] is reported as 103 % of control, the T/C [5] is reported as 106 % of control and the T/C [9] is reported as 99 % of control. For the same compound, the T/C [6] was 98 % of control, the T/C [10] was 99 % of control and the T/C [7] was 103 % of control.

For CCN=C(N)c1ccc(N=C(N)c2ccc(C(N)=Nc3ccc(C(N)=NCC)cc3)cc2)cc1, the T/C (dose: 7.5 mg/kg/injection, schedule: Q01DX Z (oral), vehicle: saline) was 98 % of control, the T/C (dose: 15.0 mg/kg/injection, schedule: Q01DX Z (ip), vehicle: saline) was 258 % of control and the T/C (dose: 15.0 mg/kg/injection, schedule: Q01DX Z (oral), vehicle: saline) was 100 % of control. For the same compound, the T/C (dose: 30.0 mg/kg/injection, schedule: Q01DX Z (oral), vehicle: saline) was 102 % of control, the T/C (dose: 60.0 mg/kg/injection, schedule: Q01DX Z (oral), vehicle: saline) was 102 % of control and the T/C (dose: 125.0 mg/kg/injection, schedule: Q## X010 (oral), vehicle: saline) was 103 % of control. For the same compound, the T/C (dose: 150.0 mg/kg/injection, schedule: Q01DX Z (oral), vehicle: saline) was 89 % of control and the T/C (dose: 250.0 mg/kg/injection, schedule: Q## X010 (oral), vehicle: saline) was 195 % of control.

CC(=O)O[C@H]1[C@H]2O[C@]23[C@@H]2CC[C@@H]4C[C@@H](OC(=O)CCC(=O)O)CC[C@]4(C)[C@H]2CC[C@]3(C)[C@H]1c1ccc(=O)oc1 was tested, and the T/C (dose: 0.13 mg/kg/injection, schedule: Q01DX009 (ip), vehicle: Klucel (hydroxypropylcellulose) (HPC)) was 100 % of control, the T/C (dose: 0.25 mg/kg/injection, schedule: Q01DX009 (ip), vehicle: Klucel (hydroxypropylcellulose) (HPC)) was 97 % of control and the T/C (dose: 0.5 mg/kg/injection, schedule: Q01DX009 (ip), vehicle: Klucel (hydroxypropylcellulose) (HPC)) was 93 % of control. The T/C (dose: 1.0 mg/kg/injection, schedule: Q01DX009 (ip), vehicle: Klucel (hydroxypropylcellulose) (HPC)) was 110 % of control.

Cc1nc(C(=O)O)cs1 was tested, and the T/C (dose: 50.0 mg/kg/injection, schedule: Q01DX009 (ip), vehicle: saline) was 95 % of control, the T/C (dose: 50.0 mg/kg/injection, schedule: Q04DX003 (ip), vehicle: acetone) was 90 % of control and the T/C (dose: 100.0 mg/kg/injection, schedule: Q01DX001 (ip), vehicle: acetone) was 98 % of control. The T/C (dose: 100.0 mg/kg/injection, schedule: Q01DX009 (ip), vehicle: saline) was 92 % of control, the T/C (dose: 100.0 mg/kg/injection, schedule: Q04DX003 (ip), vehicle: acetone) was 92 % of control and the T/C (dose: 200.0 mg/kg/injection, schedule: Q01DX001 (ip), vehicle: acetone) was 102 % of control. For the same compound, the T/C (dose: 200.0 mg/kg/injection, schedule: Q04DX003 (ip), vehicle: acetone) was 95 % of control.
